According to paper PMC4493701, “Quantitative and qualitative analysis of the novel antitumor 1,3,4-oxadiazole derivative (GLB) and its metabolites using HPLC-UV and UPLC-QTOF-MS” (Scientific Reports, 2015):
Read-outs that look alike come from different tables or passages of the source.

Tests used:
[1] = Pharmacokinetic study in rats after single oral administration of GLB (HPLC-UV in plasma); format: in vivo, Sprague-Dawley rats; conditions: for concentration at 0.5 h / concentration at 1 h / concentration at 2 h / concentration at 4 h / concentration at 6 h / concentration at 8 h / concentration at 12 h / concentration at 24 h / concentration at 36 h / concentration at 48 h / concentration at 72 h / concentration at 96 h: oral; for concentration at 0.5 h: 0.5 h after single oral GLB 100 mg/kg; for concentration at 1 h: 1 h after single oral GLB 100 mg/kg; for concentration at 2 h: 2 h after single oral GLB 100 mg/kg; for concentration at 4 h: 4 h after single oral GLB 100 mg/kg; for concentration at 6 h: 6 h after single oral GLB 100 mg/kg; for concentration at 8 h: 8 h after single oral GLB 100 mg/kg; for concentration at 12 h: 12 h after single oral GLB 100 mg/kg; for concentration at 24 h: 24 h after single oral GLB 100 mg/kg; for concentration at 48 h: 48 h after single oral GLB 100 mg/kg; for concentration at 72 h: 72 h after single oral GLB 100 mg/kg; for concentration at 96 h: 96 h after single oral GLB 100 mg/kg; for Tmax / half-life / Cmax / AUC(0-inf) / AUC(0-t): rat plasma, single oral GLB 100 mg/kg; for AUC(0-t): read-out: AUC(0-96)
Description: The validated bioanalytical method was applied to the detection of GLB concentration in plasma after a single oral administration of GLB (100 mg/kg, n = 6) in rats. At 0.5 h after oral administration, the prototype drug of GLB was detected in rat plasma. The peak concentration of GLB was at 6 h (2.78 ± 0.89 μg/mL) with quantifiable at the 36 h (0.14 ± 0.18 μg/mL). At 96 h time point, low concentration of GLB was still detectable in rat plasma (Fig. 2B).
HPLC-UV analyses were performed with a DIONEX Ultimate 3000 HPLC system (Thermo Fisher Scientific, MA, USA), which included a double-ternary pump (DGP-3600SD), a temperature controlled automatic sampler (WPS-3000SL), a column temperature box (TCC-3000SD), and a ultraviolet (UV) detector (VWD-3400). The UV detection wavelength was set at 300 nm. The chromatographic separation was achieved on a reversed-phase Alltima C18 analytical column (150 mm × 4.6 mm; 5 μm), and the mobile phase was the mixture of acetonitrile and distilled water (65:35, v/v), running at the flow rate of 1.0 mL/min. The temperature of column box was kept at 25 °C. The injection volume was 20 μL. The HPLC data was processed using Chromeleon^TM 6.8 software (Thermo Fisher Scientific, MA, USA).
Sprague-Dawley rats (Male, 210 ± 20 g, 7–8 weeks) were provided by the Department of Experimental Animal, Beijing University (Beijing, China). Environmental controls for the animal room were set at 22 ± 3 °C with 50 ± 20% relative humidity. This animal study was performed in strict accordance with the recommendations in the Guide for the Care and Use of Laboratory Animals of China Association for Laboratory Animal Science. All animal care and experimental protocols were approved by the Animal Care Committee of Peking University Health Science Center. All sacrifice was performed under pentobarbitone anesthesia, and every effort was made to minimize suffering.
Rats were fasted 12 h prior to the study and were allowed access to food 4 h after oral dosing. Eighteen rats were divided randomly into six groups and rats were sampled at interval in each group. The blood samples at each time point were collected from six rats. The rats were dosed with a suspension of GLB (100 mg/kg, in 0.5% sodium carboxymethyl cellulose CMC-Na solution) and the blood samples were collected at the predose, 0.5, 1, 2, 4, 6, 8, 12, 24, 36, 48, 72 and 96 h post-dosing. The blood samples were centrifuged at 2800 rpm (1473 × g) for 20 min and the plasma was stored at −20 °C until analyzed.
The 400 μL plasma sample was transferred into a glass tube, followed by the addition of 25 μL of IS and 2 mL of extraction solvent ethyl acetate. The mixture was vortexed for 3 min to extract GLB and IS from plasma sample and then centrifuged at 2800 rpm (1473 × g) for 20 min. The upper organic phase was transferred into a glass tube. The sample was extracted twice with 2 mL of ethyl acetate for liquid-liquid extraction. The combined upper organic phases were evaporated to dryness at 37 °C under a gentle stream of nitrogen gas. The residue was reconstituted with 100 μL of methanol and was injected 20 μL into the HPLC system. In addition, in order to perform mass spectrometry analyses, the residue was reconstituted with 150 μL of methanol-water (v/v, 1:1), and then centrifuged at 14000 rpm (17968 × g) for 15 min, the upper liquid was transferred into sample vials and 10 μL was injected for UPLC-QTOF/MS analysis.
The pharmacokinetic parameters of GLB were calculated by a non-compartmental pharmacokinetic analysis method using Drug and Statistical Version 3.0 (DAS 3.0) software (the Mathematical Pharmacology Committee, Chinese Pharmacological Society, China). The maximum peak concentration of the drug in plasma (Cmax) and the time to reach the maximum concentration (Tmax) were estimated from the experimental data. The area under the plasma concentration-time curves from 0 to infinity (i.e., AUC0-∞) and from 0 to 96 h (AUC0-96) were calculated by the trapezoidal summation. […]

[2] = system: thymidine phosphorylase; conditions: cited from earlier work
[3] = system: tumor angiogenesis, growth and metastasis; design: method as in PMID 15960897; conditions: in vivo; cited from earlier work
[4] = male, Sprague-Dawley, rat, plasma, 100 mg/kg, rat, M1/M2 relative to GLB standard curve
[5] = male, Sprague-Dawley, rat, plasma, 100 mg/kg, 36 h after single oral GLB 100 mg/kg, rat, M1/M2 relative to GLB standard curve
[6] = male, Sprague-Dawley, rat, plasma, po, 100 mg/kg, n = 6, read-out: Tmax
[7] = male, Sprague-Dawley, n = 6, M1/M2 relative concentrations from GLB standard curve

Compound	concentration at 0.5 h [1, 4]	concentration at 1 h [1, 4]	concentration at 2 h [1, 4]	concentration at 4 h [1, 4]	concentration at 6 h [1, 4]	concentration at 8 h [1, 4]	concentration at 12 h [1, 4]	concentration at 24 h [1, 4]	concentration at 36 h [1, 5]	concentration at 48 h [1, 4]	concentration at 72 h [1, 4]	concentration at 96 h [1, 4]	Tmax [1, 6]	half-life ([1]; male, Sprague-Dawley, n = 6)	AUC(0-inf) [1, 7]	AUC(0-t) [1, 7]	also measured
CC(=O)N1N=C(c2ccc(Br)cc2)OC12C1OC(C)(C)OC1COC21COC(C)(C)O1 (stereo not drawn) [GLB, Fructose-based 3-acetyl-2,3-dihydro-1,3,4-oxadiazole]	43 ± 151 ng/mL	673 ± 65 ng/mL	1400 ± 210 ng/mL	1460 ± 210 ng/mL	2780 ± 887 ng/mL	1600 ± 656 ng/mL	1470 ± 672 ng/mL	262 ± 241 ng/mL	139 ± 183 ng/mL	58 ± 63 ng/mL	11 ± 5 ng/mL	16 ± 17 ng/mL	6 h	9.24 ± 4.74 h	33500 ± 9050 ng·h/mL	33300 ± 9100 ng·h/mL	Plasma concentration ([1]; 36 h after single oral GLB 100 mg/kg, rat, M1/M2 relative to GLB standard curve): 140 ± 180 ng/mL; Cmax ([1]; male, Sprague-Dawley, n = 6, text, read-out: Cmax): 2780 ± 890 ng/mL; Cmax ([1]; n = 6, M1/M2 relative concentrations from GLB standard curve): 2780 ± 890 ng/mL; Thymidine phosphorylase inhibition [2]: thymidine phosphorylase inhibitor; Effect on tumor angiogenesis, growth and metastasis [3]: block the tumor angiogenesis, growth and metastasis in vivo
CC(=O)N1N=C(c2ccc(Br)cc2)OC1(C1OC(C)(C)OC1C(=O)O)C1(O)COC(C)(C)O1 (stereo not drawn) [M1]	27 ± 14 ng/mL	91 ± 21 ng/mL	242 ± 55 ng/mL	336 ± 59 ng/mL	517 ± 113 ng/mL	443 ± 137 ng/mL	390 ± 114 ng/mL	185 ± 182 ng/mL	37 ± 15 ng/mL	24 ± 20 ng/mL	15 ± 9 ng/mL	25 ± 11 ng/mL	6 h	11.3 ± 5.94 h	10000 ± 3340 ng·h/mL	9660 ± 3380 ng·h/mL	Cmax ([1]; male, Sprague-Dawley, n = 6, M1/M2 relative concentrations from GLB standard curve, read-out: Cmax): 540 ± 100 ng/mL; Tmax ([1]; n = 6): 7.33 ± 2.73 h
